What was measured:
[1] = target: T1, Glycine receptor subunit alpha-1 (Rattus norvegicus, UniProt P07727); test: Displacement of [3H]Strychnine from glycine receptor in rat brain synaptic membranes; format: cell membranes
T1 sequence (P07727 whole entry): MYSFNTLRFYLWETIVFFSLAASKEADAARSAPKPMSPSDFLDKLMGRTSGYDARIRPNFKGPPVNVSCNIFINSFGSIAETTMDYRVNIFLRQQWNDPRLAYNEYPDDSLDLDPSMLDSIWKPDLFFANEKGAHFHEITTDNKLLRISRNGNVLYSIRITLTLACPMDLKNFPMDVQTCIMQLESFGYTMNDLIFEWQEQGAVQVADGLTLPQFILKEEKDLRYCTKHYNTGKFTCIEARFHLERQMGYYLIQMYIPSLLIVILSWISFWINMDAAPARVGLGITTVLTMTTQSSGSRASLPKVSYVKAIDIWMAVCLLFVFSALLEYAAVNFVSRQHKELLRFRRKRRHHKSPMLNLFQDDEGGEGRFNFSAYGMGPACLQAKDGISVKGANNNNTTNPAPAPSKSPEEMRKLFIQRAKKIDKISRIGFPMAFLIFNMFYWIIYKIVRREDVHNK

Mus musculus [2] = test: Induction of clonic convulsions in ip dosed COBS-CDI mouse measured after 3 hrs; format: functional
[3] = Toxicity in ip dosed COBS-CDI mouse assessed as mortality measured after 3 hrs; format: organism-based; conditions: in vivo
Mus musculus [4] = test: Induction of tonic convulsions in ip dosed COBS-CDI mouse measured after 3 hrs; format: functional

Row | Structure (SMILES) | IC50 [1] | ED50 (Mus musculus [2]) | LD50 at 3 h [3] | ED50 (Mus musculus [4])
1 | CC(=O)N1CC2(CCCC2)c2ccccc21 | > 1000 µM | 1650 µmol/kg | 6880 µmol/kg | > 7420 µmol/kg
2 | CC(=O)N1CC2(CCN(C)C2)c2ccccc21 (configuration not stated) | 23.6 µM | 79.6 µmol/kg | 94.8 µmol/kg | 83.9 µmol/kg
3 | CC(=O)N1CC2(CCN(Cc3ccccc3)C2)c2ccccc21.O=C(O)C(=O)O (configuration not stated) | 31 µM | 252 µmol/kg | 505 µmol/kg | > 1010 µmol/kg
4 | C=CCN1CCC2(C1)CN(C(C)=O)c1ccccc12.O=C(O)C(=O)O (configuration not stated) | 67.9 µM | 300 µmol/kg | 396 µmol/kg | 434 µmol/kg
5 | CC(=O)N1CC2(CCNC2)c2ccccc21.O=C(O)C(=O)O (configuration not stated) | 295 µM | 542 µmol/kg | 687 µmol/kg | 746 µmol/kg
6 | CN1CCC2(CNc3ccccc32)C1 (configuration not stated) | 282 µM | 365 µmol/kg | 412 µmol/kg | 412 µmol/kg
7 | CC(=O)N1CCc2ccccc21 | > 1000 µM | > 2480 µmol/kg | 1400 µmol/kg | > 2480 µmol/kg
8 | CC(=O)N1c2ccccc2C(C)(C)C1C (racemic) | > 1000 µM | < 1970 µmol/kg | 2830 µmol/kg | > 3940 µmol/kg

Source: ChEMBL document CHEMBL3272155, “Synthesis of beta-spiro[pyrrolidinoindolines], their binding to the glycine receptor, and in vivo biological acitivity” (J Med Chem, 1977)
